Assay results taken from US8921376B2, “Pyrrolopyridines useful as inhibitors of protein kinase” (Vertex Pharmaceuticals Incorporated, priority 2005, dated 2014).

Columns and labels:
Type in all cases: biochemical
JAK2 = JAK2 (Homo sapiens, UniProt O60674); assay: JAK2 inhibition assay (as Example 3 with JAK-2 enzyme)
How it was run: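 Radiometric JAK2 kinase assay: poly(Glu)4Tyr substrate at final 15 μM, ATP at final 12 μM with [33P]; buffer 100 mM HEPES pH 7.4, 1 mM DTT, 10 mM MgCl2, 25 mM NaCl, 0.01% BSA. 20 min at 25 °C, TCA-stopped, 33P incorporation counted after filter capture.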

JAK3 = target: T1, JAK3 (Homo sapiens, UniProt P52333); assay: JAK3 inhibition assay (33P incorporation into poly(Glu)4Tyr)
T1 sequence (P52333 1-1124): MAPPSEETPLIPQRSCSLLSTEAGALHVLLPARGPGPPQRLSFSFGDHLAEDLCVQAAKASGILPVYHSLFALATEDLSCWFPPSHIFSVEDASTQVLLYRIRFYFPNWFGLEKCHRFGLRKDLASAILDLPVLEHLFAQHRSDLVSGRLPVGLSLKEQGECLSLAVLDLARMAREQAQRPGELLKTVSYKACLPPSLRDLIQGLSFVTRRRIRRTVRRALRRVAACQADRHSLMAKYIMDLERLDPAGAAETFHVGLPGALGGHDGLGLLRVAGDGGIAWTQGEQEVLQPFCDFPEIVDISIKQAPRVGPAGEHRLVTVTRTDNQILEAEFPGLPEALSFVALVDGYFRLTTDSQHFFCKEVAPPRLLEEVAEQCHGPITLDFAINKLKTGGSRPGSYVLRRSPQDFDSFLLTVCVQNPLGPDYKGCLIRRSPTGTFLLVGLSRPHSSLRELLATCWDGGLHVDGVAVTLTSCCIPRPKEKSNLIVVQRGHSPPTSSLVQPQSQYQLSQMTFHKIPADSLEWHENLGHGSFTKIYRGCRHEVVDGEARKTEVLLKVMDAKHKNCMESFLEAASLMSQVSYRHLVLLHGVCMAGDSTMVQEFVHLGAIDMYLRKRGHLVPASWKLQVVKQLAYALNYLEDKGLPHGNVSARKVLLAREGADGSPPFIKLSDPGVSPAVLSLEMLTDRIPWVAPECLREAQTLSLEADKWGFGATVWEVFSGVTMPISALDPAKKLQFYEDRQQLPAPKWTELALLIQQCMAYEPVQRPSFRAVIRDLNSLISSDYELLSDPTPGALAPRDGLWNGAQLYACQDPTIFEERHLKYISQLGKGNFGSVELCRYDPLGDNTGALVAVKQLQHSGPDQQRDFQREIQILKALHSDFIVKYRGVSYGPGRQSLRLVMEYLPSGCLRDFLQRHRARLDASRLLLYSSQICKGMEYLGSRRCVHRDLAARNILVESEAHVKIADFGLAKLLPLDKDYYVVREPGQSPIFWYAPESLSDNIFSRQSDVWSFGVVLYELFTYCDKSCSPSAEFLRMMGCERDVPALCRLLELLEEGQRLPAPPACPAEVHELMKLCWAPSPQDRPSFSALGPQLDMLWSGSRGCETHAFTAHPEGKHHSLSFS
How it was run: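 Human JAK3 at 1 nM phosphorylated 1 μM poly(Glu)4Tyr using 5 μM [33P]ATP in HEPES pH 7.4 buffer with MgCl2, DTT and BSA. Reactions ran 20 min at 25° C. and were stopped with TCA. 33P incorporation was measured by scintillation after glass-fiber filter capture.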

ROCK I = ROCK I (Homo sapiens, UniProt Q13464); assay: ROCK-I inhibition assay (radioactive enzyme assay, MBP substrate)
ROCK I, sequence (Q13464 whole entry): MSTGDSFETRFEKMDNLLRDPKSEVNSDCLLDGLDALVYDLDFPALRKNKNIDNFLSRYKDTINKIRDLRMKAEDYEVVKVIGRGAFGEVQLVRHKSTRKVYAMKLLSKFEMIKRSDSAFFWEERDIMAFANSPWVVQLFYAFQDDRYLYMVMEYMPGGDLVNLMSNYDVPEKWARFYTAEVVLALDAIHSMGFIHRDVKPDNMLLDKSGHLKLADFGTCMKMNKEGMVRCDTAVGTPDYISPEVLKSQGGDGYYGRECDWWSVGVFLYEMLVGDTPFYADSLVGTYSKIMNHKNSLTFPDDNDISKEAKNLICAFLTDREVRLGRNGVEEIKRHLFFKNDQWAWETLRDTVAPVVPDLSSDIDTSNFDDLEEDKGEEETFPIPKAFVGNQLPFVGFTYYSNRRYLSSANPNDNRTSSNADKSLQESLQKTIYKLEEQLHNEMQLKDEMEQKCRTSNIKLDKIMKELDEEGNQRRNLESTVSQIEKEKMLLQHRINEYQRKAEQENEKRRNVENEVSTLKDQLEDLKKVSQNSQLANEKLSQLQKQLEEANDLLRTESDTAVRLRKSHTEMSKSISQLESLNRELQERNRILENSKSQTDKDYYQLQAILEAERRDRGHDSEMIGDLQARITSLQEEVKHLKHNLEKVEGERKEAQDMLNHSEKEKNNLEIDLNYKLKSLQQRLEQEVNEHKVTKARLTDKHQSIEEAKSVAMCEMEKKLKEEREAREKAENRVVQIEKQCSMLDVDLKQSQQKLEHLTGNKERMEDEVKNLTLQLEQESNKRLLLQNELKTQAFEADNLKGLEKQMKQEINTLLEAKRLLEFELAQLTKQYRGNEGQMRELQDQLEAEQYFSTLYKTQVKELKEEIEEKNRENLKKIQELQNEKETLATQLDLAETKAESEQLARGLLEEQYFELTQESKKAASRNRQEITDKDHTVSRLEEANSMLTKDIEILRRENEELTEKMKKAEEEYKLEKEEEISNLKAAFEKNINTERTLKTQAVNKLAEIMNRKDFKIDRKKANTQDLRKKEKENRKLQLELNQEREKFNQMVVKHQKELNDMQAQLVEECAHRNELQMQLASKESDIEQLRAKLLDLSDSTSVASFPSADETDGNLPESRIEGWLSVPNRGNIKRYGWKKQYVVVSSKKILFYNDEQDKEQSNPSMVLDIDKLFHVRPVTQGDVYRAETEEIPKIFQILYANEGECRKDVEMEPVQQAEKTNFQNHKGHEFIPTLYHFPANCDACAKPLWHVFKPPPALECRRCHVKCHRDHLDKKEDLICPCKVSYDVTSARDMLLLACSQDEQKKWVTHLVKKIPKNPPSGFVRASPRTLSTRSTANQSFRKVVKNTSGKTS
How it was run: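 Human ROCK at 5 nM phosphorylated 27 μM myelin basic protein with 13 μM [γ-33P]ATP (final) in HEPES pH 7.5, MgCl2, NaCl, DTT and 1.5% DMSO. Reactions ran 2 h at room temperature before TCA quench and filter-plate scintillation counting. After background subtraction, data were fit to give Ki(app).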

[1] = Table 6, enzyme inhibition data (Ki)
[2] = enzyme inhibition, Ki(app), Table 5

JAK2, sequence (O60674 whole entry): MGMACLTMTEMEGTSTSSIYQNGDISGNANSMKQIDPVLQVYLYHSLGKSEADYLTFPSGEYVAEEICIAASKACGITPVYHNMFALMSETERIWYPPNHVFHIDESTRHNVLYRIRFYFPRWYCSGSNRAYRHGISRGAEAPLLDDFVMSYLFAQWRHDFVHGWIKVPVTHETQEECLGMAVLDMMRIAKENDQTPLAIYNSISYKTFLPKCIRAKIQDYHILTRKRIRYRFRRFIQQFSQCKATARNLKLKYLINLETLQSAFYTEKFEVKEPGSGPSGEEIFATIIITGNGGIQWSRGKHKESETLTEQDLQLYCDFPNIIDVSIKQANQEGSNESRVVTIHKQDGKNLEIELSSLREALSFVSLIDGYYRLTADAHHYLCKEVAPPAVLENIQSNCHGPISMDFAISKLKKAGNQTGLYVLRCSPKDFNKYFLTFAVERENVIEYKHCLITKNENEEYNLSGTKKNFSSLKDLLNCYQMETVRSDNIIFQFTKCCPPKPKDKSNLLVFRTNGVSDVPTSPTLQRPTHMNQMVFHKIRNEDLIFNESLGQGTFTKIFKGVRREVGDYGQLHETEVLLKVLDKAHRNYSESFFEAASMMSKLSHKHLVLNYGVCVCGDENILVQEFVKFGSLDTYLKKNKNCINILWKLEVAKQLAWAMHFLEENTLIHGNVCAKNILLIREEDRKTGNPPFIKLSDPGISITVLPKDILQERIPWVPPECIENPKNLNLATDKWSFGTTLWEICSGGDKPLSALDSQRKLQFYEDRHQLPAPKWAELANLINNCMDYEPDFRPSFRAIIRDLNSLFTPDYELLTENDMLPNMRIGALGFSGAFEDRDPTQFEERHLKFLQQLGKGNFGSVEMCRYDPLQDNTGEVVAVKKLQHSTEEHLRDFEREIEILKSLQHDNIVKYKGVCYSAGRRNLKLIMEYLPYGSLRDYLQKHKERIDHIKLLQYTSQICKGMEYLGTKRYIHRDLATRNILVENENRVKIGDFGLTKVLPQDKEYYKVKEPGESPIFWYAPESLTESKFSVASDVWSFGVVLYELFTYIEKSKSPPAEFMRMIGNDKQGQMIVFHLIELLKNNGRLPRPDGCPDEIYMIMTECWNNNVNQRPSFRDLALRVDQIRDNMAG

| Compound | Ki (JAK2; [1]) | Ki (JAK3; [1]) | Ki (ROCK I; [1]) | Ki (JAK2; enzyme inhibition, Table 5) | Ki (JAK3; enzyme inhibition, Table 5) | Ki (ROCK I; [2]) |
| --- | --- | --- | --- | --- | --- | --- |
| O=C(NCC(F)(F)F)c1cc(-c2ccnc3[nH]ccc23)c[nH]1 [compound 259] | < 500 nM | < 500 nM | < 500 nM | – | – | – |
| Cc1noc(C)c1-c1c(Cl)cnc2[nH]ccc12 [compound 146] | > 5000 nM | > 5000 nM | > 4000 nM | – | – | – |
| CC1CCC(C)N1C(=O)c1cc(-c2c(Cl)cnc3[nH]ccc23)c[nH]1 (stereo not drawn) [compound 359] | < 500 nM | < 500 nM | 500 to 5000 nM | – | – | – |
| CC(C)(CO)CNc1cccc(-c2ccnc3[nH]ccc23)n1 [compound 57, 3-(6-(1H-Pyrrolo[2,3-b]pyridin-4-yl)pyridin-2-ylamino)-2,2-dimethylpropan-1-ol] | – | – | – | 500 to 5000 nM | > 5000 nM | 500 to 5000 nM |
| N#CCCN(CCC(F)(F)F)C(=O)c1cc(-c2c(F)cnc3[nH]ccc23)c[nH]1 [compound 384] | < 500 nM | < 500 nM | 500 to 5000 nM | – | – | – |
| O=C(NCC(F)(F)F)c1ccc(-c2ccnc3[nH]ccc23)cc1 [compound 269] | < 500 nM | < 500 nM | < 500 nM | – | – | – |
| CC(C)Oc1ccc(-c2ccnc3[nH]ccc23)cc1 [compound 116, 4-(4-Isopropoxy-phenyl)-1H-pyrrolo[2,3-b]pyridine] | – | – | – | < 500 nM | < 500 nM | < 500 nM |
| O=C(O)c1ccccc1-c1ccnc2[nH]ccc12 [compound 238] | > 5000 nM | > 5000 nM | > 4000 nM | – | – | – |

The next lines start with the values.

| Ki (JAK2; [1]) | Ki (JAK3; [1]) | Ki (ROCK I; [1]) | Ki (JAK2; enzyme inhibition, Table 5) | Ki (JAK3; enzyme inhibition, Table 5) | Ki (ROCK I; [2]) | Compound |
| --- | --- | --- | --- | --- | --- | --- |
| < 500 nM | < 500 nM | 500 to 5000 nM | – | – | – | C=CCN(CC=C)C(=O)c1cc(-c2c(F)cnc3[nH]ccc23)c[nH]1 [compound 383] |
| < 500 nM | < 500 nM | < 500 nM | – | – | – | C=CCN(CC=C)C(=O)c1ccc(-c2ccnc3[nH]ccc23)s1 [compound 315] |
| < 500 nM | < 500 nM | < 500 nM | – | – | – | CCCCN(CC#N)C(=O)c1ccc(-c2ccnc3[nH]ccc23)s1 [compound 317] |
| 500 to 5000 nM | 500 to 5000 nM | > 4000 nM | – | – | – | CC(C)Oc1ccccc1-c1ccnc2[nH]ccc12 [compound 230] |
| < 500 nM | < 500 nM | < 500 nM | – | – | – | O=C(NC1CC1)c1cc(-c2ccnc3[nH]ccc23)c[nH]1 [compound 285] |
| < 500 nM | < 500 nM | < 500 nM | – | – | – | CC1CCCN1C(=O)c1csc(-c2ccnc3[nH]ccc23)n1 (stereo not drawn) [compound 419] |
| – | – | – | 500 to 5000 nM | < 500 nM | 500 to 5000 nM | C[C@H](Nc1nc(-c2ccnc3[nH]ccc23)ncc1F)C(=O)NCC(F)(F)F [compound 121, (S)-2-(5-fluoro-2-(1H-pyrrolo[2,3b]pyridin-4-yl)pyrimidin-4-ylamino)-N-(2,2,2-trifluoroethyl)propanamide] |
